The assay relates to dissociated rat cortical neurons. Description: Axon 3D growth after local delivery of soluble factors in silk scaffold/collagen gel 3D brain tissue model (β III-tubulin staining, 3D neurite tracing). The settings on record: for Axon length: 3D culture, mean±SEM; for axon abundance in center core of 3D cultures (β III-tubulin 2D projections): ECM components compared to neurotrophic factors, ranking among neurotrophic factors; for axons longer compared to BDNF / axons longer compared to the control: axon lengths at DIV 7, 4 days exposure; for axons longer compared to BDNF: vs BDNF; for axons longer compared to the control: vs control culture. Type of assay: cell-based. From the text: In one aspect of the present disclosure, control of axon growth and alignment in a CNS environment is critical for nervous system development and regenerative growth. The present disclosure explores the effects of exogenous stimulus of electrical signals and soluble factors on axon 3D growth, using a silk protein material-based 3D brain tissue model. A pair of gold wires were threaded into the 3D tissue model, positioned at the interface of the scaffold region and the center gel region, spanning the axon growth area. This setup delivered applied electrical field directly to growing axons, and the effects were compared to local delivery of soluble factors including extracellular (ECM) components and neurotrophic factors. In one embodiment, dissociated rat cortical neurons were exposed to an alternating field of 80 mV/mm at 0.5 Hz to 2 kHz or soluble factors for up to 4 days, starting on day 3 in vitro (DIV 3), and evaluated by of β III-tubulin immunostaining, confocal imaging and 3D neurite tracing. […] In one embodiment, though axon lengths under 2 Hz stimulation and LN or FN exposure were statistically similar, significant AC-induced axon orientation was found under all frequencies tested. In one embodiment, the effects include perpendicular orientation of axons trespassing an electrode and aligned axon tracts in parallel to the field direction. In one embodiment, the electrode in AC field acts as an alternating cathode that attracts the growing tip of the axon, and AC field between pair electrodes orient axon tract formation in parallel to the field direction. Provided in this disclosure is the use of alternating electric field stimulation to direct axon 3D length growth and orientation. In one aspect, the present disclosure provides stimulation parameters, in conjunction of delivery of growth promoting soluble factors in a brain mimetic 3D environment. In one aspect, the present disclosure teaches the fundamental effects of electrical fields on nervous system development and for testing neuromodulation approaches to promote neural regeneration.
The 3D brain tissue is composed of silk protein material-based scaffold and infused extracellular matrix (ECM) gel, such as collagen type I gel used in this study, as described previously (Tang-Schomer, 2014, 2015). The center region of the donut-shaped scaffold is filled with ECM gel only, for axon outgrowth; whereas the cell bodies are confined to the scaffold region. […]
Axon growth in the 3D brain tissue model was compared after local delivery of soluble factors, including extracellular matrix components such as laminin (LN) and fibronectin (FN) and brain-derived neurotrophic factor (BDNF), glial-derived neurotrophic factor (GDNF), neurotrophin-3 (NT3), and nerve growth factor (NGF) (FIGS. 13A-M). FIGS. 13A-J show representative 2D projections of β III-tubulin stained axons in the center core of 3D cultures.
The rat brain tissue dissociation protocol was approved by Tufts University Institutional Animal Care and Use Committee and complies with the NIH Guide for the Care and Use of Laboratory Animals (IACUC #B2011-45). Cortices from embryonic day 18 (E18) Sprague Dawley rats (Charles River, Wilmington, Mass., USA) were isolated, dissociated with trypsin (0.3%, Sigma) and DNase (0.2%, Roche Applied Science, Indianapolis, Ind., USA) followed with trypsin inhibition with soybean proteins (1 mg/mL, Sigma), centrifuged, and plated at 200,000-625,000 cells/cm^2 in NeuroBasal media (Invitrogen, Carlsbad, Calif., USA) supplemented with B-27 neural supplement, penicillin/streptomycin (100 U/mL and 100 μg/mL), and GlutaMax (2 mM) (Invitrogen). Cultures were maintained in 37° C., 100% humidity and 5% CO2 in an incubator (Forma Scientific, Marietta, Ohio, USA) for up to 16 days in vitro (DIV 1-16). Cultures of DIV 14-16 were used for stimulation.
Silk solution and porous scaffolds were prepared from Bombyx mori cocoons as described previously (Tang-Schomer et al., 2014). […]

[1] abbreviates: 48 hr exposure after local delivery of soluble factor.
The mark [2] stands for this setting: 4 ds exposure of soluble factor (DIV 7), in µm.

Take fibronectin [FN]: the “axon abundance in center core of 3D cultures (β III-tubulin 2D projections)” value (shortened to “axon abundance in center core”) is “more abundant axons”, the “axons longer compared to BDNF” value is around 25% and the “axons longer compared to the control” value is listed as around 41%. Under setting [1], this molecule gave an Axon length of 1220.7±57.5 μm. This molecule also registered an Axon length under setting [2] of 1411.8±45.1.

As for laminin [LN], the “axon abundance in center core” value is “more abundant axons”, the “axons longer compared to BDNF” value was around 18% and the “axons longer compared to the control” value is given as around 33%. Besides, the Axon length under setting [1] amounted to 1237.7±51.3 μm. The Axon length under setting [2] was 1332.5±71.0.

As for nerve growth factor [NGF], the Axon length reads like this: under setting [1], 706.5±33.4 μm; under setting [2], 1045.6±61.9.

B1: neurotrophin-3 (protein, UniProt P20783 139-257, looked up)
Neurotrophin-3: YAEHKSHRGEYSVCDSESLWVTDKSSAIDIRGHQVTVLGEIKTGNSPVKQYFYETRCKEARPVKNGCRGIDDKHWNSQCKTSQTYVRALTSENNKLVGWRWIRIDTSCVCALSRKIGRT
notes: neurotrophic factor delivered locally as soluble factor
Regarding B1, the “axon appearance after 48 hr exposure” value (48 hr exposure) is “robust growth”. In addition, the Axon length by setting is: under setting [1], 728.2±42.5 μm; under setting [2], 784.3±71.6. For the same molecule, the “axon appearance after 4 days” value (4 days after local delivery) was “signs of axon degeneration”.

B2: glial-derived neurotrophic factor (protein, UniProt P39905 78-211, looked up)
Glial cell line-derived …: SPDKQMAVLPRRERNRQAAAANPENSRGKGRRGQRGKNRGCVLTAIHLNVTDLGLGYETKEELIFRYCSGSCDAAETTYDKILKNLSRNRRLVSDKVGQACCRPIAFDDDLSFLDDNLVYHILRKHSAKRCGCI
notes: as for B1
As to B2, the Axon length worked out at 802.5±38.0 μm under setting [1] and 1068.3±43.9 under setting [2].

B3: brain-derived neurotrophic factor (protein, UniProt P23560 19-247, looked up)
Neurotrophic factor BDNF …: APMKEANIRGQGGLAYPGVRTHGTLESVNGPKAGSRGLTSLADTFEHVIEELLDEDQKVRPNEENNKDADLYTSRVMLSSQVPLEPPLLFLLEEYKNYLDAANMSMRVRRHSDPARRGELSVCDSISEWVTAADKKTAVDMSGGTVTVLEKVPVSKGQLKQYFYETKCNPMGYTKEGCRGIDKRHWNSQCRTTQSYVRALTMDSKKRIGWRFIRIDTSCVCTLTIKRGR
notes: as for B1
For the molecule B3, the “axon abundance in center core” value was “most abundant axons” and the “axons longer compared to the control” value is reported as around 13%. The Axon length under setting [1] is 946.8±35.2 μm. This molecule also returned an Axon length under setting [2] of 1131.1±52.0.
